Measurements reported in patent publication US11633382B2, “Treatment of ER-negative breast cancer with an PDGF-CC inhibitor and anti-estrogen” (Paracrine Therapeutics AB, priority 2015, dated 2023).

Columns and labels:
[1] = tested on: Human MDA-MB-231 cells; assay: MDA-MB-231 orthotopic xenograft, anti-PDGF-CC and aromatase inhibitor (Example 2); assay type: in vivo, SCID mice; details: A3B6 i.p. twice a week, letrozole 1 mg/dose oral daily; combination p<0.01 vs control, p<0.05 vs A3B6, p<0.001 vs letrozole (FIG. 7)
Source text: All therapeutic administrations were open-label.

[2] = tested on: MDA-MB-231 tumors (basal-like subtype); assay: MDA-MB-231 xenograft in SCID mice, tumor growth and angiogenesis (Example 1); assay type: in vivo; details: tamoxifen oral gavage daily with control antibody or A3B6 (FIG. 6c-d)
Protocol: 2×10^6 Human MDA-MB-231 cells were inoculated subcutaneously in immunodeficient mice. […] When tumors were palpable (longest diameter >3 mm), mice were randomized and treated with Tamoxifen (3 mg/kg) or vehicle (corn oil) via oral gavage daily.
In order to investigate whether pharmacological targeting of PDGF-CC as a mono-therapy impacted on breast tumor growth or angiogenesis, we treated SCID mice bearing orthotopically implanted MDA-MB-231 tumors (basal-like subtype) twice-weekly with the PDGF-CC antibody, A3B6 or with control antibody.
The clinically most important distinguishing feature of luminal subtype breast tumors is the expression of ERα, which confers sensitivity to hormone therapy, such as tamoxifen. We next set out to investigate whether targeting of PDGF-CC would convey sensitivity to hormone therapy to previously impervious ER-negative breast tumors of basal-like subtype. Non-transgenic mice bearing orthopically transplanted tumors from MMTV-PyMT; Pdgfc^+/+ or MMTV-PyMT; Pdgfc^lacz/lacz mice were treated daily with tamoxifen starting from […].

[3] = tested on: MMTV-PyMT; Pdgfc+/+ tumors; assay: Orthotopically transplanted MMTV-PyMT; Pdgfc+/+ (wt) tumors, tamoxifen trial; assay type: in vivo, FVB/N mice; details: tamoxifen daily (FIG. 6a)
Protocol: (§1) 3 weeks old FVB/N (common background strain for both MMTV-PyMT and PDGF-C mice) female mice were anesthetized and maintained under Isolfluorane during the surgical procedure. A 4 mm incision under the nipple of the right abdominal mammary gland created a pocket where a 2×2 mm tumor piece (kept on ice, either from MMTV-PyMT or MMTV-PyMT; PDGF-C tumors) was inserted. Suturing was performed with 6-O Ethilon polyamide filament (Ethicon). Pain-killer and anti-inflammatory Rimadyl (5 mg/kg body weight; Orion Pharma Animal Health) was injected i.p. at the end of the surgical procedure and for the following two days. For the therapeutic trial, Tamoxifen (2 mg/mL) was diluted in corn oil (vehicle) and administered via oral gavage daily.
(§2) Mouse mammary cell lines MMTV . . . MMTV/PDGF-C−/− . . . (established in our laboratory) were orthotopically injected into the 4th inguinal mammary gland on FVB/N mice. Furthermore, small tumor pieces (2 mm^3) of MMTV-PyMT and MMTV-PDGF-CC−/− tumors were directly orthotopically transplanted under anesthesia. The mice were subjected to Rimadyl immediately after the surgery and the following two days for analgetics. The tumors were measured twice a week and mice were euthanized as described above. […]

[4] = tested on: MMTV-PyMT; Pdgfc^lacz/lacz tumors; assay: Orthotopically transplanted MMTV-PyMT; Pdgfc lacz/lacz tumors, tamoxifen trial; assay type: in vivo, FVB/N mice; details: Pdgfc-deficient tumors
Protocol: as §1, §2

[5] = tested on: ER-negative breast cancer; details: ER-negative disease, patients; cited from earlier work

Row | Structure (SMILES) | tumor growth, difference between groups [1] | growth of fully established MDA-MB-231 tumors [2] | tumor growth rate vs untreated mice [3] | tumor growth ([4]; tamoxifen daily (FIG. 6b)) | tumor volume at the end of the trial ([4]; tamoxifen daily, untreated tumors had grown) | effect on breast cancer recurrence or mortality [5]
1 | N#Cc1ccc(C(c2ccc(C#N)cc2)n2cncn2)cc1 [letrozole] | no other differences are statistically significant | – | – | – | – | –
2 | CCC(=C(c1ccccc1)c1ccc(OCCN(C)C)cc1)c1ccccc1 [tamoxifen, 2-[4-(1,2-diphenylbut-1-enyl)phenoxy]-N,N-dimethyl-ethanamine] | – | unable to influence the growth | continued to grow at a similar rate | severely growth-retarded | reduced volume | little or no effect
